Results published in patent publication US8815872B2, “Macrocyclics pyrimidines as aurora kinase inhibitors” (Merck Patent GmbH, priority 2008, dated 2014).
Where two headings read alike, the source gives them in different places.

Legend:
[1] = biological target: kinases (not incl. Aurora); experiment: Kinase inhibition profile (not incl. Aurora); assay type: biochemical; conditions: at 1 μM; hit means >79% inhibition
Method: (§1) The Aurora and other kinase assays described here were performed on two Caliper Life Sciences systems, the LC3000 and the Desktop Profiler. These provide data on enzyme activity via measurement of the relative amounts of phosphorylated or unphosphorylated fluorescently labelled substrate peptide at the end of an enzymatic reaction. These different states of peptide are resolved by applying a potential difference across the sample. The presence of a charged phosphate group on the product (as opposed to the substrate) causes a different peptide mobility between the two peptides. This is visualized by excitation of a fluorescent label on the substrate and product peptides and represented as peaks within the analysis software.
The Desktop Profiler utilizes the same principal as the LC 3000 for calculating percentage conversion of a substrate to product. Caliper Life Sciences provided proprietary flash frozen pre-made 384 well plates containing selected kinases. Each column in the 384 well plate contained a particular selected kinase. A second plate, the ‘substrate plate’ contained a mix of fluorescently labeled peptide substrate and ATP. These were arranged in columns so that transfer for substrate plate to enzyme plate provided the correct enzyme with the correct substrate/ATP concentration.
Compounds were added to a thawed enzyme plate in the desired format, in single concentrations. Reactions were initiated by transfer of the ubstrate/ATP mix from the substrate plate. The enzyme plate was incubated for 90 mins at 25 °C. The reaction was stopped by addition of […] of Stop Buffer (100 mM HEPES pH 7.5, 0.015% Brij-35, 10 mM EDTA (Sigma, E7889)).
Plates were read in a manner identical to that of the LC3000, and the ratio between substrate and product peaks provided the activity of the enzyme in that well. This was best represented by a plate heat map which colors each well by percent inhibition as compared to positive and negative controls (no inhibitors and no ATP respectively).

Aurora A = biological target: T1, Aurora A (Homo sapiens, UniProt O14965); experiment: Aurora A enzyme assay (Caliper LC3000 mobility shift); assay type: biochemical
T1 construct: N-terminal GST fusion with full length Aurora A (1-403 amino acids); purchased Carna Biosciences 05-101
T1 sequence (O14965 1-403): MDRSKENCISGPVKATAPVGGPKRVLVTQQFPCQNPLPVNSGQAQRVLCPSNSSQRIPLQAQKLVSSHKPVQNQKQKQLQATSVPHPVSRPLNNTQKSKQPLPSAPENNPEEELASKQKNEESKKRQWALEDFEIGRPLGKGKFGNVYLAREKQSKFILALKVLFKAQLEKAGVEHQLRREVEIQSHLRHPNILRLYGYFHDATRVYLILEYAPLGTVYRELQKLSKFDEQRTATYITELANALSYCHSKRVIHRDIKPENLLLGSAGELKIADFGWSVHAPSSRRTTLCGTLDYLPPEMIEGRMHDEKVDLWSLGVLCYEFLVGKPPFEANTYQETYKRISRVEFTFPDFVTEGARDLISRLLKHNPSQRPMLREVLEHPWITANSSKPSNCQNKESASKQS
Method in brief: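 Full-length N-terminal GST-Aurora A (0.067 ng/µl) with 15 µM ATP and 1 µM FITC-LRRASLG peptide in 100 mM HEPES pH 7.5, 1 mM MgCl2, 1 mM DTT, 0.015% Brij-35, 90 min at 25 °C, EDTA-stopped. Off-chip mobility shift measured percent substrate conversion; IC50 from sigmoidal dose-response fit.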

[2] = snar bond
Aurora B = Aurora B (Homo sapiens, UniProt Q96GD4); experiment: Aurora B enzyme assay (Caliper); assay type: biochemical
Method in brief: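 Kinase activity was measured by microfluidic mobility-shift separation of phosphorylated and unphosphorylated fluorescently labelled substrate peptide at the end of the enzymatic reaction. Product and substrate were resolved by their charge difference and detected by fluorescence.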

MiaPaca2 = experiment: Cellular activity MiaPaca2; assay type: cell-based; conditions: Homo sapiens, MIA PaCa-2
Method in brief: (§2)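 Cultured cells were exposed to compounds at various concentrations for roughly one hour to one week, enough to induce cell death or inhibit migration. Viable cells remaining after treatment were then counted.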

A549 = experiment: Cellular activity A549; assay type: cell-based; conditions: Homo sapiens
Method in brief: as §2

Ret(h) = biological target: T2, Ret(h) (Homo sapiens, UniProt P07949); experiment: Inhibition of other kinases IC50 (Table 2); assay type: biochemical
T2 construct: purchased Caliper Life Sciences
Method: as §1

Pyk2(h) = biological target: T3, Pyk2(h) (Homo sapiens, UniProt Q14289); experiment: Inhibition of other kinases IC50 (Table 2); assay type: biochemical
T3 construct: purchased Caliper Life Sciences
Method: as §1

IRAK4(h) = biological target: T4, IRAK4(h) (Homo sapiens, UniProt Q9NWZ3); experiment: Inhibition of other kinases IC50 (Table 2); assay type: biochemical
T4 construct: purchased Caliper Life Sciences
T4 sequence (Q9NWZ3 1-460): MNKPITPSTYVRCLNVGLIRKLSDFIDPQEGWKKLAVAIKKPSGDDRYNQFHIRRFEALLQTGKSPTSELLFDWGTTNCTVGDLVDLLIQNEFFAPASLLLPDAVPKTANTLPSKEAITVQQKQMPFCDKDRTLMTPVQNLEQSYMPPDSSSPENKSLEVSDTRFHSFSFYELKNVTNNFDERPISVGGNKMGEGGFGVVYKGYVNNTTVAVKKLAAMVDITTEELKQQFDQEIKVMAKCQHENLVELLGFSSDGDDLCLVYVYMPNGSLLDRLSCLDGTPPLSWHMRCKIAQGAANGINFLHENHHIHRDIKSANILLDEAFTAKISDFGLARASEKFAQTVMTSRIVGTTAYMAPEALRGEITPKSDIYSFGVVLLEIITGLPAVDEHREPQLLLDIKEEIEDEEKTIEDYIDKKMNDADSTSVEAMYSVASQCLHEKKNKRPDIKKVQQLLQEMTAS
Method: as §1

FAK(h) = biological target: T5, FAK(h) (Homo sapiens, UniProt Q05397); experiment: Inhibition of other kinases IC50 (Table 2); assay type: biochemical
T5 construct: purchased Caliper Life Sciences
Method: as §1

Tie2(h) = biological target: T6, Tie2(h) (Homo sapiens, UniProt Q02763); experiment: Inhibition of other kinases IC50 (Table 2); assay type: biochemical
T6 construct: purchased Caliper Life Sciences
Method: as §1

Sequence of Aurora B (Q96GD4 whole entry): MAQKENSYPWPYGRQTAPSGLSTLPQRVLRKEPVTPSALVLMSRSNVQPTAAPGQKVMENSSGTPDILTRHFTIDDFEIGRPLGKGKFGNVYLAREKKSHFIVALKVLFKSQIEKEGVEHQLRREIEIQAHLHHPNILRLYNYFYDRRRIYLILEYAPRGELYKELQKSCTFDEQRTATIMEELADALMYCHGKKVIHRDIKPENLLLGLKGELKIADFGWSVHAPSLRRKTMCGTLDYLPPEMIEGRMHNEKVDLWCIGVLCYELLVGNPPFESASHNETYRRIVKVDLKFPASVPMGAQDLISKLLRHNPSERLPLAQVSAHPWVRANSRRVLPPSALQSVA
T5 sequence (Q05397 whole entry): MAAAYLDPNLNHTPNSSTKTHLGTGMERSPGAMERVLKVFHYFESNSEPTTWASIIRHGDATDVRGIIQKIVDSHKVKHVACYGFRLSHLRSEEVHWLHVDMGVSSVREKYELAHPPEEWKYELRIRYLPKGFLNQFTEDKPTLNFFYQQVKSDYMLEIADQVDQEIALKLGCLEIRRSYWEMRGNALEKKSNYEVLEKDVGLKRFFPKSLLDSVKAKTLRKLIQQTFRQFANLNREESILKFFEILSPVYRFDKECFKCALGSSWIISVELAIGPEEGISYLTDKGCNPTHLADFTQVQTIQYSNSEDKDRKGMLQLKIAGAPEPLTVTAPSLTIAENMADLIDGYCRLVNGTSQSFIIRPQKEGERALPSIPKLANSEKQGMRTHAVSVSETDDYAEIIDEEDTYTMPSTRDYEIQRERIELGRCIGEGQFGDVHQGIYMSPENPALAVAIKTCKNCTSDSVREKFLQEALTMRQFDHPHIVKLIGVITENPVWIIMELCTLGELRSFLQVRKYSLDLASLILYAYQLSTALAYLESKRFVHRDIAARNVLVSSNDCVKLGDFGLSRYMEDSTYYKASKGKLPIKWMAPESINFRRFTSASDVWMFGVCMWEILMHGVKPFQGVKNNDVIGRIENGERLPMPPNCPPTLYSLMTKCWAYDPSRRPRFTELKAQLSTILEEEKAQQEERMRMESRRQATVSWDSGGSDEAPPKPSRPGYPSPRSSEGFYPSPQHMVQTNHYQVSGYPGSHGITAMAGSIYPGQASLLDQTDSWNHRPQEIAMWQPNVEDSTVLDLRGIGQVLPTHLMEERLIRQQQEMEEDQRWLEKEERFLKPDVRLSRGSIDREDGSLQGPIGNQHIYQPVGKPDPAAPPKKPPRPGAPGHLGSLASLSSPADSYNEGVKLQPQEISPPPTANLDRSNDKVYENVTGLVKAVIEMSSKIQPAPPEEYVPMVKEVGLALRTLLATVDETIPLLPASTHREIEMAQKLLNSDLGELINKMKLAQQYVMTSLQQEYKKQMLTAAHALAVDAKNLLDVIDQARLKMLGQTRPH
T2 sequence (P07949 29-1114): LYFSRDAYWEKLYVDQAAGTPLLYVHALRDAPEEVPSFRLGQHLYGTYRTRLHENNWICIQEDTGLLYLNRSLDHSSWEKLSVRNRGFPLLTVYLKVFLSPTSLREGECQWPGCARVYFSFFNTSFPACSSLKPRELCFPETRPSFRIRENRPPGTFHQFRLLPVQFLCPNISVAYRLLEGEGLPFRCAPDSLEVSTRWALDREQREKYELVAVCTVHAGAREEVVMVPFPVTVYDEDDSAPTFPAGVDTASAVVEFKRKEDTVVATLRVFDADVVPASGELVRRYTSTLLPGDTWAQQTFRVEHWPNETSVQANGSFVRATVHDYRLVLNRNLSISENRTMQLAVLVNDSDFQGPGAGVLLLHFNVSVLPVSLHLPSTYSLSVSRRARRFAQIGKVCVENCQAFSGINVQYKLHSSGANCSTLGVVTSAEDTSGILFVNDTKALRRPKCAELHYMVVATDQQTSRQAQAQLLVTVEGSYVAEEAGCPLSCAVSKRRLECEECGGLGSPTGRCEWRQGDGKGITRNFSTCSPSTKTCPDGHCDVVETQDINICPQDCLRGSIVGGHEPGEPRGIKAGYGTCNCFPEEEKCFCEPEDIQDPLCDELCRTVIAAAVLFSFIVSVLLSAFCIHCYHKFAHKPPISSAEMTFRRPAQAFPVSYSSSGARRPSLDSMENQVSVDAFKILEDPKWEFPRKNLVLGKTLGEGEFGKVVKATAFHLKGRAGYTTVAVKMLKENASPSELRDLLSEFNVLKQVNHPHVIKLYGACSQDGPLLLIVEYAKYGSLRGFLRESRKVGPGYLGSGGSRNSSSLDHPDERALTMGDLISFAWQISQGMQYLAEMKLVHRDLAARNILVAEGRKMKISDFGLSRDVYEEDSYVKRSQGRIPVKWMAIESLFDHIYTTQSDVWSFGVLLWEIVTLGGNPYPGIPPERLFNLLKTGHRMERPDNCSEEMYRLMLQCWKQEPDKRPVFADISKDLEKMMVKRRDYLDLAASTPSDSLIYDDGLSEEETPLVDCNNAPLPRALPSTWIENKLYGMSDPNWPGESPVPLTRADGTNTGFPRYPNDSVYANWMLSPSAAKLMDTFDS
T3 sequence (Q14289 whole entry): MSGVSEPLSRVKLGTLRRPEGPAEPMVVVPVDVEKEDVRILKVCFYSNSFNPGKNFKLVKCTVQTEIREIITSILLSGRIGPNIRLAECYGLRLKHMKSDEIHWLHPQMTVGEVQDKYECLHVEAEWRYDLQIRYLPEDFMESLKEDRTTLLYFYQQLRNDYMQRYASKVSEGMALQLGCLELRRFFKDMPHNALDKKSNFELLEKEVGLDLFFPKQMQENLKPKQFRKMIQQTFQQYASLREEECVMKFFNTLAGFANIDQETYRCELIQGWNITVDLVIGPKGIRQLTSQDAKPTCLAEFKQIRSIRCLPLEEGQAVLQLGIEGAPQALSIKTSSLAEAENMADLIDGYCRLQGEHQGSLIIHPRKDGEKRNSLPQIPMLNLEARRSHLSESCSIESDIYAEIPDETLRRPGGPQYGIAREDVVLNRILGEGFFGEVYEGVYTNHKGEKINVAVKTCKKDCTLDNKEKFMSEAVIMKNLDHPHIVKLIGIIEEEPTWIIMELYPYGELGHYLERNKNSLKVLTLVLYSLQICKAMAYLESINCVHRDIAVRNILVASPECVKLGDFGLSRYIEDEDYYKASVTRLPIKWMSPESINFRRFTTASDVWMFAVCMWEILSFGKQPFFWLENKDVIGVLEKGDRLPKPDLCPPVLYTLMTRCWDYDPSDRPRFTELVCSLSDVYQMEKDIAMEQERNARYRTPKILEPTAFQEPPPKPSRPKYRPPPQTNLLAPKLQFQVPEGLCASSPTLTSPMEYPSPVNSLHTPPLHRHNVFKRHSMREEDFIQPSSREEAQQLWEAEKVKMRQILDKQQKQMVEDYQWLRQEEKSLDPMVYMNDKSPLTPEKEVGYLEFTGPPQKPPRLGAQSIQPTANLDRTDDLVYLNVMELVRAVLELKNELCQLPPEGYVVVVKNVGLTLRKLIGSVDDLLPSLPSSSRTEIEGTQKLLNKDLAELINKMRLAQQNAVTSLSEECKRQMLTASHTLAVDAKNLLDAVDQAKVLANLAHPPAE
T6 sequence (Q02763 23-1124): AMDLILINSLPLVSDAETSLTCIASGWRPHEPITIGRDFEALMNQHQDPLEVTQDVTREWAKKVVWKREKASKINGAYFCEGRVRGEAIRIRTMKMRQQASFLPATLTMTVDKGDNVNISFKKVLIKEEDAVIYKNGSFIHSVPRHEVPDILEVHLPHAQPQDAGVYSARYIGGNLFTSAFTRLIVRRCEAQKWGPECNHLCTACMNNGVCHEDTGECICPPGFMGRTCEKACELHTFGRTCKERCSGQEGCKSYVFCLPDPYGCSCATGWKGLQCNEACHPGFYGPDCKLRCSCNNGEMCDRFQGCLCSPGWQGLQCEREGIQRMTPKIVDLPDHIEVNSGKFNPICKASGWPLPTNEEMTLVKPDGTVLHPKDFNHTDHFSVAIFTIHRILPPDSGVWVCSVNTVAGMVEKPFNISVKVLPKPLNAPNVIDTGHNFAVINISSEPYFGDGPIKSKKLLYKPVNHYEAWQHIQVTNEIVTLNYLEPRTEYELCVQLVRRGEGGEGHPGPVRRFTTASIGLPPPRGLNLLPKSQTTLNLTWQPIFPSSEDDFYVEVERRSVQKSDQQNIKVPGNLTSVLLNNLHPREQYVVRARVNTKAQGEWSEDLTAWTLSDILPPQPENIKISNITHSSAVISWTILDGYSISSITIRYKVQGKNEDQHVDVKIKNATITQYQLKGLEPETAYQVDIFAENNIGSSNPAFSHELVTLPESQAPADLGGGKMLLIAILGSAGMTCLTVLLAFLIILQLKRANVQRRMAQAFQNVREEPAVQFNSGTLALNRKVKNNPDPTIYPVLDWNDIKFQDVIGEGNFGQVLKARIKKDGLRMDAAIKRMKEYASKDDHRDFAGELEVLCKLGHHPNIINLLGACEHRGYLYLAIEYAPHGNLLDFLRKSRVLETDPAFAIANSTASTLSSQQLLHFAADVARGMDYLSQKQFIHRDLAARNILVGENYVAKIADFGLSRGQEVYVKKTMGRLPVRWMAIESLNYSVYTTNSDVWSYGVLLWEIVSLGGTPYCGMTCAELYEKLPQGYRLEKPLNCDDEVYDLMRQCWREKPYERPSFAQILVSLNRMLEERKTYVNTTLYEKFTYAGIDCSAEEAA

SMILES | Kinase Inhibition Profile (not incl. Aurora) # kinases hit/# kinases tested [1] | IC50 (Aurora A) [µM] | IC50 (Aurora B) [µM] | IC50 (MiaPaca2) [µM] | IC50 (A549) [µM] | other results
NC(=O)[C@H]1[C@@H]2CC3CNCCc4cccc(c4)Nc4ncc(F)c(n4)N[C@@H]1[C@@H]3C2 (stereo partly shown) | 1/53 at 1 μM | 0.101 to 1 | 0.001 to 0.1 | 0.101 to 1 | 0.101 to 1 | ring closure, yield of all isomers ([2]; from NC(=O)[C@H]1[C@@H]2CC(CNCCc3cccc(N)c3)[C@@H](C2)[C@H]1Nc1nc(Cl)ncc1F): 18.5%
NC(=O)[C@H]1[C@@H]2CC3CNC(=O)Nc4cccc(c4)Nc4ncc(F)c(n4)N[C@@H]1[C@@H]3C2 (stereo partly shown) | 1/76 at 1 μM | 0.101 to 1 | 0.101 to 1 | 1 to 6.25 | > 6.25 | ring closure, yield of all isomers ([2]; from NC(=O)[C@H]1[C@@H]2CC(CNC(=O)Nc3cccc(N)c3)[C@@H](C2)[C@H]1Nc1nc(Cl)ncc1F): 15.1%
NC(=O)[C@H]1[C@@H]2C[C@H]3CNS(=O)(=O)Cc4cccc(c4)Nc4ncc(F)c(n4)N[C@@H]1[C@@H]3C2 |  | 0.001 to 0.1 | 0.101 to 1 | 1 to 6.25 | 1 to 6.25 | ring closure, yield of all isomers ([2]; from NC(=O)[C@H]1[C@@H]2C[C@@H](CNS(=O)(=O)Cc3cccc(N)c3)[C@@H](C2)[C@H]1Nc1nc(Cl)ncc1F): 6.3%
NC(=O)[C@H]1[C@@H]2C[C@H]3CNCC(=O)Nc4cccc(c4)Nc4ncc(F)c(n4)N[C@@H]1[C@@H]3C2 |  | 0.101 to 1 | 0.101 to 1 |  |  | ring closure, yield of all isomers ([2]; from NC(=O)[C@H]1[C@@H]2C[C@@H](CNCC(=O)Nc3cccc(N)c3)[C@@H](C2)[C@H]1Nc1nc(Cl)ncc1F): 44%
NC(=O)[C@H]1[C@H]2C[C@H]3[C@H]1Nc1nc(ncc1F)Nc1cccc(c1)CC(=O)N[C@@H]3C2 |  | 0.001 to 0.1 | 0.001 to 0.1 |  |  | ring closure, yield of all isomers ([2]; from NC(=O)[C@H]1[C@H]2C[C@@H]([C@H]1Nc1nc(Cl)ncc1F)[C@H](NC(=O)Cc1cccc(N)c1)C2): 8.1%
CN1CCN(c2ccc3cc2COC(=O)N[C@@H]2C[C@@H]4C[C@H]2[C@@H](Nc2nc(ncc2F)N3)[C@H]4C(N)=O)CC1 |  | 0.001 to 0.1 | 0.001 to 0.1 | 0.101 to 1 | 0.101 to 1 | ring closure, yield of all isomers ([2]; from CN1CCN(c2ccc(N)cc2COC(=O)N[C@@H]2C[C@@H]3C[C@H]2[C@@H](Nc2nc(Cl)ncc2F)[C@H]3C(N)=O)CC1, HCl): 8.7%
NC(=O)[C@H]1[C@H]2C[C@H]3[C@H]1Nc1nc(ncc1F)Nc1cccc(c1)CCS[C@@H]3C2 [Example 18] |  |  |  |  |  | IC50 (Ret(h)): 1 to 6.25 µM; IC50 (Pyk2(h)): 0.101 to 1 µM; IC50 (IRAK4(h)): 0.001 to 0.1 µM; IC50 (FAK(h)): 0.101 to 1 µM; IC50 (Tie2(h)): 1 to 6.25 µM

Now from value to molecule, other results behind:

Kinase Inhibition Profile (not incl. Aurora) # kinases hit/# kinases tested [1] | IC50 (Aurora A) [µM] | IC50 (Aurora B) [µM] | IC50 (MiaPaca2) [µM] | IC50 (A549) [µM] | SMILES | other results
1/50 at 1 μM | 0.101 to 1 | 0.001 to 0.1 | 0.001 to 0.1 | 0.001 to 0.1 | NC(=O)[C@H]1[C@@H]2CC3CNCc4cccc(c4)Nc4ncc(F)c(n4)N[C@@H]1[C@@H]3C2 (stereo partly shown) | ring closure, yield of all isomers ([2]; from NC(=O)[C@H]1[C@@H]2CC(CNCc3cccc(N)c3)[C@@H](C2)[C@H]1Nc1nc(Cl)ncc1F): 7.6%
 | 0.001 to 0.1 | 0.001 to 0.1 | 1 to 6.25 | 1 to 6.25 | NC(=O)[C@H]1[C@H]2C[C@H]3[C@H]1Nc1nc(ncc1F)Nc1cccc(c1)CNC(=O)N[C@@H]3C2 | ring closure, yield of all isomers ([2]; from NC(=O)[C@H]1[C@H]2C[C@@H]([C@H]1Nc1nc(Cl)ncc1F)[C@H](NC(=O)NCc1cccc(N)c1)C2): 36.7%
 | 0.001 to 0.1 | 0.001 to 0.1 | 1 to 6.25 | 1 to 6.25 | NC(=O)[C@H]1[C@H]2C[C@H]3[C@H]1Nc1nc(ncc1F)Nc1cccc(c1)COC(=O)N[C@@H]3C2 | ring closure, yield of all isomers ([2]; from NC(=O)[C@H]1[C@H]2C[C@@H]([C@H]1Nc1nc(Cl)ncc1F)[C@H](NC(=O)OCc1cccc(N)c1)C2): 3.3%
